What was measured:
Format in all cases: physicochemical
[1] = Evaluation of preservation stability, presence or absence of deposits in acid and sugar solutions (Experiment Example 3); design: key: +: the presence of deposits; −: the absence of deposits; x: no dissolution in the acid and sugar solution; conditions: 210 days
Method: MY and γ-CD were used in the 1:1 proportion (mole ratio) to prepare a powder composition (sample 1) according to the method of Example 1. […] Each solution was hot-packed in a 100-ml glass vial (93° C.). The drinks so prepared were allowed to cool, and placed under 50° C., room temperature (25±2° C.), and low-temperature (5° C.) conditions for 210 days. The presence or absence of deposits was then checked by visual inspection. […] The drinks so prepared were allowed to cool, and placed under 50° C., room temperature (25±2° C.), and low-temperature (5° C.) conditions for 210 days. The presence or absence of deposits was then observed. In the table, the symbol “+” means the presence of deposits, and “−” the absence of deposits. The symbol “x” means no dissolution in the acid and sugar solution.

[2] = Evaluation of the solubility of other flavonoids in water (Experiment Example 2)
Method: The solubility (mg/ml) of each composition in water in terms of the flavonoid was then determined according to the method of Experiment Example 1. The solubility (mg/ml) of the flavonoid itself in water was also determined as a control, and the solubility (fold) was calculated from the relative ratio of the two.

[3] = Evaluation of MY composition solubility in water (Experiment Example 1)
Method: The MY and γ-CD were used in the proportions (mole ratios) presented in Table 1, and […] different powdery MY compositions (Samples 1 to 22) were prepared according to the method of Example 1.
The powdery MY composition (Samples 1 to 22) or a control MY (MY itself) was added to water (20 ml) in a 100-ml Erlenmeyer flask while stirring. The samples were added until they could not be dissolved further, and formed deposits. Each solution was shaken (Bio-Shaker BR-3000LF, 160 rpm, amplitude=40 mm, Taitec Co., Ltd.) at 25° C. for 40 hours, and centrifuged at 9,000 rpm for 10 min to collect the supernatant. The supernatant was appropriately diluted with a 0.1% phosphoric acid aqueous solution, and absorbance (346 nm) was measured.
1) MY (50 mg) was accurately weighed, and dissolved in methanol to make the volume precisely 100 ml. 2) The solution was appropriately diluted with a 0.1% phosphoric acid aqueous solution to prepare MY solutions of 0.0001, 0.0005, 0.001, 0.005, and 0.01 mg/ml concentrations. 3) The absorbance of the standard solution at a wavelength of maximum absorption was measured with a spectrophotometer. 4) A standard curve was created based on the content of MY in the MY solution, and the measured absorbance value.

[4] = Evaluation of water solubility with α- and β-cyclodextrins (Reference Experiment Example)
Method: Evaluation of Water Solubility with α- and β-Cyclodextrins Instead of γ-CD, α-cyclodextrin (α-CD) and β-cyclodextrin (β-CD) (both from Nihon Shokuhin Kako Co., Ltd.) were used to prepare MY inclusions, and the solubility of the compositions in water was evaluated.
Specifically, an MY composition containing 3 moles of α-CD (Reference Sample 1), or an MY composition containing 3 moles of β-CD (Reference Sample 2) per mole of MY were prepared according to the method of Example 1, and the solubility of each composition in water was determined as an MY solubility (mg/ml) according to the method of Experiment Example 1. The solubility (mg/ml) of the MY itself was also determined as a control, and the solubility (fold) was calculated from the relative ratio of the two.

What does the source list for `C[C@H]1O[C@@H](Oc2c(-c3cc(O)c(O)c(O)c3)oc3cc(O)cc(O)c3c2=O)[C@@H](O)[C@@H](O)[C@@H]1O` [MY, myricitrin]?
presence or absence of deposits ([1]; pH 3, 50° C., flavonoid concentration 0.05%): +; presence or absence of deposits ([1]; pH 3, 50° C., flavonoid concentration 0.10%): +; presence or absence of deposits ([1]; pH 3, refrigerated (5° C.), flavonoid concentration 0.05%): +; presence or absence of deposits ([1]; pH 3, refrigerated (5° C.), flavonoid concentration 0.10%): +; presence or absence of deposits ([1]; pH 3, room temperature, flavonoid concentration 0.05%): +; presence or absence of deposits ([1]; pH 3, room temperature, flavonoid concentration 0.10%): +; presence or absence of deposits ([1]; pH 6, 50° C., flavonoid concentration 0.05%): −; presence or absence of deposits ([1]; pH 6, 50° C., flavonoid concentration 0.10%): −; presence or absence of deposits ([1]; pH 6, refrigerated (5° C.), flavonoid concentration 0.05%): +; presence or absence of deposits ([1]; pH 6, refrigerated (5° C.), flavonoid concentration 0.10%): +; presence or absence of deposits ([1]; pH 6, room temperature, flavonoid concentration 0.05%): +; presence or absence of deposits ([1]; pH 6, room temperature, flavonoid concentration 0.10%): +; presence or absence of deposits ([1]; pH 9, 50° C., flavonoid concentration 0.05%): −; presence or absence of deposits ([1]; pH 9, 50° C., flavonoid concentration 0.10%): −; presence or absence of deposits ([1]; pH 9, refrigerated (5° C.), flavonoid concentration 0.05%): −; presence or absence of deposits ([1]; pH 9, refrigerated (5° C.), flavonoid concentration 0.10%): −; presence or absence of deposits ([1]; pH 9, room temperature, flavonoid concentration 0.05%): −; presence or absence of deposits ([1]; pH 9, room temperature, flavonoid concentration 0.10%): −; Solubility (fold) (in terms of flavonoids) ([2]; Flavonoid:γ-CD = 1:0 (mole ratio), flavonoid itself, reference): 1 fold; Solubility (fold) (in terms of flavonoids) ([2]; Flavonoid:γ-CD = 1:1 (mole ratio)): 157.8 fold; Solubility (fold) (in terms of flavonoids) ([2]; Flavonoid:γ-CD = 1:3 (mole ratio)): 256.2 fold; Solubility (fold) (in terms of flavonoids) ([2]; Flavonoid:γ-CD = 1:5 (mole ratio)): 187.4 fold; Solubility (fold) (in terms of flavonoids) ([2]; Flavonoid:γ-CD = 1:10 (mole ratio)): 49.3 fold; Solubility (fold) (in terms of flavonoids) ([2]; Flavonoid:γ-CD = 1:15 (mole ratio)): 59.9 fold; Solubility (fold) (in terms of flavonoids) ([2]; Flavonoid:γ-CD = 1:20 (mole ratio)): 46.3 fold; Solubility (fold) ([3]; relative to solubility of MY itself (non-inclusion) = 1, 25° C., 40 hours): 1 fold; Solubility (in terms of myricitrin, mg/ml) ([3]; shaken at 25° C. for 40 hours, MY:γ-CD = 1:X per sample): 0.12 mg/mL; Solubility (fold) ([4]; relative to MY alone = 1): 1 fold; Solubility (in terms of myricitrin, mg/ml) ([4]; water, method of Experiment Example 1, MY:CD = 1:3 mole ratio): 0.10 mg/mL

— patent US20120015090A1, “READILY WATER-SOLUBLE MYRICITRIN COMPOSITION” (SAN-EI GEN F.F.I., INC., priority 2009, published 2012)
